Data taken from patent US10633579B2, “Use of environmentally friendly solvents to replace glycol-based solvents” (RHODIA OPERATIONS, priority 2011, dated 2020).

Tests used:
Format in all cases: physicochemical
[1] = Wettability of EGMBE compared with alternative solvents/blends
[2] = Surface tension by the ring method (Du Nouy method); details: undiluted solvent, about 50 milliliters sample
Description: Surface Tension: Referring generally to Table 2, interfacial tension is measured for each test solvent or solvent blend for EGMBE-replacement. No further dilution is performed on the solvent prior to measurement. Interfacial tension was measured using about 50 milliliters sample by the ring method (Du Nouy method).

[3] = Blends miscible in water and in mud solvents (Table 6); details: 50/50 wt, room temperature
Description: Miscibility Test: Referring generally to Tables 4-6, the test solvent or solvent blend for EGMBE-replacement is mixed with common solvents used in oilfield industries to determine miscibility. […] It is shaken vigorously for about a minute and let stand for about 5 mins. A complete miscibility is recorded if there is no formation of layers. Formation of turbid mixture or multiple layers is recorded as immiscible or separate.

[4] = Miscibility test with common oilfield solvents (Tables 3-5); parameters: key: S = separate; M = miscible; details: 50/50 volume per volume; for Solubility in Crude oil: shaken about a minute, let stand about 5 mins
Description: For each test solvent, it is blended with a common solvent at 50/50 volume per volume ratio. It is shaken vigorously for about a minute and let stand for about 5 mins. A complete miscibility is recorded if there is no formation of layers. Formation of turbid mixture or multiple layers is recorded as immiscible or separate.

[5] = Miscibility of alkyldimethylamides as stated in the text

SMILES | wettability, Mean (°) [1] [°] | ST (surface tension) [2] [mN/m] | Solubility in Alpha Olefin C1618 [4] | Solubility in Brines (Forties FW) [4] | Solubility in D-Limonene [4] | Solubility in Dodecane (to mimic Kerosen) [4] | Solubility in Exxsol D100 [4] | Solubility in Solvesso 150 ND [4] | Solubility in Water [4] | Solubility in isoparrafin [4] | Solubility in isopropanol [4] | Solubility in toluene [4] | Solubility in xylene [4] | Solubility in Crude oil [4] | also measured
CCCCOCCO [EGMBE, ethyleneglycolmonobutyl ether] | 45.0 | 26.3757 | – | – | – | – | – | – | – | – | – | – | – | – | Miscibility in Alpha Olefin C1618 [3]: miscible; Miscibility in D-Limonene [3]: miscible; Miscibility in Exxsol D100 [3]: miscible; Miscibility in Isopar L [3]: miscible; Miscibility in Water [3]: miscible; Miscibility in xylene [3]: miscible
CC1(C)OCC(CO)O1 (stereo not shown) [Augeo SL 191] | 50.5 | 31.9988 | S | M | M | S | S | M | M | S | M | M | M | S | –
O [Water] | 109.2 | – | – | – | – | – | – | – | – | – | – | – | – | – | –
CCCCOCCOCCO [Butyl Carbitol, diethylene glycol butyl ether] | 50.8 | – | – | – | – | – | – | – | – | – | – | – | – | – | –
CC(C)O [IPA, isopropyl alcohol] | – | – | M | M | M | M | M | M | M | M | M | M | M | M | –
COC(=O)C(C)CCC(=O)N(C)C (stereo not shown) [Polarclean] | 48.9 | 33.871 | S | M | M | S | S | M | M | S | M | M | M | S | –
CCCCOCC(C)O (stereo not shown) [Dowanol, propylene glycol n-butyl ether] | 29.8 | – | M | S | M | M | M | M | S | M | M | M | M | M | –
CCCCCCCC(=O)N(C)C [N,N-dimethyloctanamide] | – | – | – | – | – | – | – | – | – | – | – | – | – | – | miscibility [5]: 0.43%
